Measured values reported in patent US8987195B2 (priority 2012, dated 2015).
Where two headings read alike, the source gives them in different places.

Key:
[1] = molecular target: HCV NS3/4A protease genotype 3a (Hepatitis C virus genotype 3a, UniProt Q81495); test: HCV NS3/4A protease time-resolved fluorescence (TRF) assay, Ki against genotype 3a; type: biochemical
Procedure: (§1) Measuring NS3/4A Inhibitory Activity (Ki) Against Genotype 1b, Against A156T Mutants and Against Genotype 3a
(§2) One assay for measuring inhibitory activity is HCV NS3 protease time-resolved fluorescence (TRF) assay as described below and in Mao et al., Anal. Biochem. 373:1-8, 2008 and International Patent Application Publication WO 2006/102087. A NS3 protease assay can be performed, for example, in a final volume of 20 μl assay buffer containing 50 mM HEPES, pH 7.5, 150 mM NaCl, 15% glycerol, 0.15% TRITON X-100, 10 mM DTT, and 0.1% PEG 8000. NS3 and NS4A protease is pre-incubated with various concentrations of inhibitors in DMSO for 30 min. The reaction is initiated by adding the TRF peptide substrate (final concentration 25 nM). NS3 mediated hydrolysis of the substrate was run for 2.5 hours at room temperature. Product fluorescence is detected using A Pherastar Plus plate reader (BMG) or Envision (Perkin Elmer Life and Analytical Sciences with excitation at 340 nm and emission at 615 nm using the appropriate delay time optimized for the europium fluorescence probe. Testing concentrations of different enzyme forms are selected to result in a signal to background ratio (S/B) of 10-30. IC50 values are derived using a standard four-parameter fit to the data. Ki values are derived from IC50 values using the following formula, IC50=Ki(1+[S]/KM), Eqn (1), where [S] is the concentration of substrate peptide in the reaction and KM is the Michaelis constant. See P. Gallinari et al., 38 BIOCHEM. 5620-32 (1999); P. Gallinari et al., 72 J. VIROL. 6758-69 (1998); M. Taliani et al., 240 ANAL. BIOCHEM. 60-67 (1996); Mao et al., Analytical Biochemistry 373: 1-8, 2008.
(§3) The assay described above was run against genotype 1b at a concentration of 0.2 nM, against A156T mutant strains at a concentration of 0.4 nM, and against genotype 3a at a concentration of 0.025 nM.

[2] = molecular target: HCV NS3/4A protease A156T mutant (Hepatitis C virus genotype 1b, UniProt P26663, A1182T); test: HCV NS3/4A protease time-resolved fluorescence (TRF) assay, Ki against A156T mutant; type: biochemical; settings: read-out: IC50 [gt-1b A156T]
Procedure: as §1, §2, §3

HCV genotype 1b replicon = test: HCV replicon assay, genotype 1b replicon EC50; type: cell-based, Hepatitis C virus; settings: Hepatitis C virus, read-out: EC50 [gt-1b]
Summary of the method: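 Replicon cells (Neo^r, some luciferase:Neo^r fusion); G418 removed at plating; compound dilution series, 24-48 h. Readout: RNA by 32P-probe hybridization/protection or TaqMan, normalized to cyclophilin A RNA, or luciferase. EC50 vs DMSO control, 4-parameter fit.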

[3] = molecular target: HCV NS3/4A protease genotype 1b (Hepatitis C virus genotype 1b, UniProt P26663); test: HCV NS3/4A protease time-resolved fluorescence (TRF) assay, Ki against genotype 1b; type: biochemical
Summary of the method: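 Time-resolved fluorescence readout of NS3/4A cleavage of 25 nM europium-labelled peptide over 2.5 h at room temperature, enzyme levels set for signal/background 10–30 (0.2, 0.4, 0.025 nM for 1b, A156T, 3a). Ki by IC50=Ki(1+[S]/KM).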

[4] = NS3/4A gt-1b A156T mutant, enzyme 0.4 nM
[5] = IC50 [gt-1b] (nM), NS3/4A genotype 1b, enzyme 0.2 nM
[6] = NS3/4A gt-1b A156T mutant, enzyme 0.4 nM, K+ salt
[7] = IC50 [gt-1b] (nM), NS3/4A genotype 1b, enzyme 0.2 nM, K+ salt

Row | Compound | IC50 [1] [nM] | IC50 [2, 4] [nM] | EC50 (HCV genotype 1b replicon; genotype 1b replicon) [nM] | IC50 [3, 5] [nM] | IC50 [2, 6] [nM] | EC50 (HCV genotype 1b replicon; genotype 1b replicon, K+ salt) [nM] | IC50 [3, 7] [nM] | IC50 ([2]; NS3/4A protease TRF assay, A156T mutant enzyme 0.4 nM) [nM] | EC50 (HCV genotype 1b replicon; HCV replicon, genotype 1b) [nM] | IC50 ([3]; IC50 [gt-1b], NS3/4A protease TRF assay, genotype 1b enzyme 0.2 nM) [nM]
1 | Cc1nc2ccccc2c2c1O[C@]1(CC2)C[C@H]2C(=O)N[C@]3(C(=O)NS(=O)(=O)C4(C)CC4)C[C@H]3/C=C\CCCCC[C@H](NC(=O)OC(C)(C)C)C(=O)N2C1 [Example 74, tert-butyl [(2R,6S,12Z,13aS,14aR,16aS)-5′-methyl-14a-{[(1-methylcyclopropyl)sulfonyl]carbamoyl}-5,16-dioxo-1,1′,2′,5,6,7,8,9,10,11,13a,14,14a,15,16,16a-hexadecahydrospiro[cyclopropa[e]pyrrolo[1,2-a][1,4]diazacyclopentadecine-2,3′-pyrano[2,3-c]quinolin]-6-yl]carbamate] | 0.572 | 0.124 | 2.48 | 0.008 |  |  |  |  |  | 
2 | Cc1nc2ccc(Cl)cc2c2c1O[C@]1(CC2)C[C@H]2C(=O)N[C@]3(C(=O)NS(=O)(=O)C4(C)CC4)C[C@H]3/C=C\CCCCC[C@H](NC(=O)OCC(C)C)C(=O)N2C1 [Example 189, 2-methylpropyl [(2R,6S,12Z,13aS,14aR,16aS)-9′-chloro-5′-methyl-14a-{[(1-methylcyclopropyl)sulfonyl]carbamoyl}-5,16-dioxo-1,1′,2′,5,6,7,8,9,10,11,13a,14,14a,15,16,16a-hexadecahydrospiro[cyclopropa[e]pyrrolo[1,2-a][1,4]diazacyclopentadecine-2,3′-pyrano[2,3-c]quinolin]-6-yl]carbamate] | 0.394 |  |  |  | 0.062 | 6.42 | 0.002 |  |  | 
3 | Cc1nc2cc(F)c(F)cc2c2c1O[C@]1(CC2)C[C@H]2C(=O)N[C@]3(C(=O)NS(=O)(=O)C4(C)CC4)C[C@H]3/C=C\CCCCC[C@H](NC(=O)OC(C)C)C(=O)N2C1 [Example 194, propan-2-yl [(2R,6S,12Z,13aS,14aR,16aS)-8′,9′-difluoro-5′-methyl-14a-{[(1-methylcyclopropyl)sulfonyl]carbamoyl}-5,16-dioxo-1,1′,2′,5,6,7,8,9,10,11,13a,14,14a,15,16,16a-hexadecahydrospiro[cyclopropa[e]pyrrolo[1,2-a][1,4]diazacyclopentadecine-2,3′-pyrano[2,3-c]quinolin]-6-yl]carbamate] | 0.994 |  |  |  | 0.0541 | 8.28 | 0.007 |  |  | 
4 | Cc1nc2cc(F)c(F)cc2c2c1O[C@]1(CC2)C[C@H]2C(=O)N[C@]3(C(=O)NS(=O)(=O)C4(C)CC4)C[C@H]3/C=C\CCCCC[C@H](NC(=O)OC3(C)CC3)C(=O)N2C1 [Example 195, 1-methylcyclopropyl [(2R,6S,12Z,13aS,14aR,16aS)-8′,9′-difluoro-5′-methyl-14a-{[(1-methylcyclopropyl)sulfonyl]carbamoyl}-5,16-dioxo-1,1′,2′,5,6,7,8,9,10,11,13a,14,14a,15,16,16a-hexadecahydrospiro[cyclopropa[e]pyrrolo[1,2-a][1,4]diazacyclopentadecine-2,3′-pyrano[2,3-c]quinolin]-6-yl]carbamate] | 1.73 |  |  |  | 0.134 | 8.67 | 0.01 |  |  | 
5 | COc1ccc2nc(C)c3c(c2c1)CC[C@]1(C[C@H]2C(=O)N[C@]4(C(=O)NS(=O)(=O)C5(C)CC5)C[C@H]4/C=C\CCCCC[C@H](NC(=O)OC4(C)COC4)C(=O)N2C1)O3 [Example 198, 3-methyloxetan-3-yl [(2R,6S,12Z,13aS,14aR,16aS)-9′-methoxy-5′-methyl-14a-{[(1-methylcyclopropyl)sulfonyl]carbamoyl}-5,16-dioxo-1,1′,2′,5,6,7,8,9,10,11,13a,14,14a,15,16,16a-hexadecahydrospiro[cyclopropa[e]pyrrolo[1,2-a][1,4]diazacyclopentadecine-2,3′-pyrano[2,3-c]quinolin]-6-yl]carbamate] | 0.561 | 0.104 | 9.19 | 0.006 |  |  |  |  |  | 
6 | COc1ccc2nc(C)c3c(c2c1)CC[C@]1(C[C@H]2C(=O)N[C@]4(C(=O)NS(=O)(=O)C5(C)CC5)C[C@H]4/C=C\CCCCC[C@H](NC(=O)OC4CCC4)C(=O)N2C1)O3 [Example 199, cyclobutyl [(2R,6S,12Z,13aS,14aR,16aS)-9′-methoxy-5′-methyl-14a-{[(1-methylcyclopropyl)sulfonyl]carbamoyl}-5,16-dioxo-1,1′,2′,5,6,7,8,9,10,11,13a,14,14a,15,16,16a-hexadecahydrospiro[cyclopropa[e]pyrrolo[1,2-a][1,4]diazacyclopentadecine-2,3′-pyrano[2,3-c]quinolin]-6-yl]carbamate] | 0.287 |  |  |  | 0.0462 | 1 | 0.003 |  |  | 
7 | Cc1nc2ccc(C(F)(F)F)cc2c2c1O[C@]1(CC2)C[C@H]2C(=O)N[C@]3(C(=O)NS(=O)(=O)C4(C)CC4)C[C@H]3/C=C\CCCCC[C@H](NC(=O)OCC(C)(C)C)C(=O)N2C1 [Example 255, 2,2-dimethylpropyl [(2R,6S,12Z,13aS,14aR,16aS)-5′-methyl-14a-{[(1-methylcyclopropyl)sulfonyl]carbamoyl}-5,16-dioxo-9′-(trifluoromethyl)-1,1′,2′,5,6,7,8,9,10,11,13a,14,14a,15,16,16a-hexadecahydrospiro[cyclopropa[e]pyrrolo[1,2-a][1,4]diazacyclopentadecine-2,3′-pyrano[2,3-c]quinolin]-6-yl]carbamate] | 2.86 | 0.679 | 50.9 | 0.015 |  |  |  |  |  | 
8 | COc1ccc2nc(C)c3c(c2c1)C(F)(F)C[C@]1(C[C@H]2C(=O)N[C@]4(C(=O)NS(=O)(=O)C5(C)CC5)C[C@H]4/C=C\CCCCC[C@H](NC(=O)OCC(C)C)C(=O)N2C1)O3 [Example 266, 2-methylpropyl [(2S,6S,12Z,13aS,14aR,16aS)-1′,1′-difluoro-9′-methoxy-5′-methyl-14a-{[(1-methylcyclopropyl)sulfonyl]carbamoyl}-5,16-dioxo-1,1′,2′,5,6,7,8,9,10,11,13a,14,14a,15,16,16a-hexadecahydrospiro[cyclopropa[e]pyrrolo[1,2-a][1,4]diazacyclopentadecine-2,3′-pyrano[2,3-c]quinolin]-6-yl]carbamate] | 2.1 |  |  |  | 0.384 | 4.47 | 0.014 |  |  | 
9 | COc1ccc2nc(C)c3c(c2n1)CC[C@]1(C[C@H]2C(=O)N[C@]4(C(=O)NS(=O)(=O)C5(C)CC5)C[C@H]4/C=C\CCCCC[C@H](NC(=O)OCC(C)(C)C)C(=O)N2C1)O3 [Example 361, 2,2-dimethylpropyl [(2R,6S,12Z,13aS,14aR,16aS)-2′-methoxy-6′-methyl-14a-{[(1-methylcyclopropyl)sulfonyl]carbamoyl}-5,16-dioxo-1,5,6,7,8,9,9′,10,10′,11,13a,14,14a,15,16,16a-hexadecahydrospiro[cyclopropa[e]pyrrolo[1,2-a][1,4]diazacyclopentadecine-2,8′-pyrano[2,3-c][1,5]naphthyridin]-6-yl]carbamate] | 0.433 |  |  |  |  |  |  | 0.241 | 4.43 | 0.012
